# Source: patent US4405643A, “Treatment of acute pulmonary edema with arginine esters” (Italfarmaco S.p.A., priority 1979, dated 1983)
# Structures can show the parent of a compound that is named as a salt.
# How the values were obtained:
# [1] = Protection against anaphylactic shock (horse serum); assay type: in vivo, male albino guinea pigs; details: parenteral, with horse serum challenge, after 12 h
# Procedure: The anaphylactic shock has been induced according to the method of S. M. Feinberg, M. Pharmacol. Exp. Therapeut., 99, 195 (1950). There have been used male albino guinea pigs of average weight, 350±20 grams previously stabilized for a period of ten days at a temperature of 21°±1° C., under conditions of controlled diet and water "ad libitum". Three days before the beginning of the experiment, the animals are divided in groups of ten for the purpose of achieving good randomization. Each single dose has been tried on three groups of animals.
# The sensitization has been carried out by administration of 1 ml/guinea pig through the endovenous route of horse serum, (whole serum, not treated with preservatives) diluted 1:10 in physiological saline solution. After 14 days, the solutions of the substances being tested and the samples of physiological solutions for use with the controls are administered through the parenteral route. Simultaneously, 1 ml/guinea pig of horse serum, undiluted is administered, this substance being used as the agent which prompts the anaphylaxis. The percentage of mortality is determined after 12 hours.
# [2] = Protection against shock caused by endotoxins (lipopolysaccharide B from S. Enteritidis); assay type: in vivo, male rats of Wistar type; details: parenteral, 1 h before endotoxin, after 24 h
# From the text: Endotoxin-induced shock has been produced according to the method reported by A. Bertelli and L. Donati, in the publication "The Influence of Some Enzymes and Enzymes Inhibitors in Shock", published in "SHOCK Biochemical,Pharmaceutical and Clinical Aspects"; A. Bertelli and N. Back Editors, Advances in Experimental Medicine and Biology; Volume 9, Plenum Press New York - London 1970, page 215. By way of comparison, there has been used a substance of well known therapeutical activity, specifically aprotinine, the commercial products marketed by Farbenfabriken Bayer, under the name "Trasylol". Male rats of Wistar type of 120 grams by weight ±10 have been used. The rats were previously stabilized for a period of ten days at a temperature of 21°±1° C. under a controlled diet and water "ad libitum". Twenty-four hours prior to the test, the animals were divided in groups of ten for the purpose of achieving randomization. Every single dose has been tried on six groups of animals.
# Lipopolysaccharide B from S. Enteritidis (Difco Labs.) was used as the endotoxin. This substance was administered in the dose of 10 mg/kg by the endoperitoneal route, one hour after administration of the substance being administered by the parenteral route or in the form of a physiological solution in equal volume per kilogram to the animals being used as control.
# The mortality in percent was determined in the animals being tested as compared with the controls after twenty-four hours.
# [3] = Protection against pulmonary edema (adrenaline-induced acute edema of the lungs); assay type: in vivo, male albino rats of Wistar type; details: parenteral, 15 min before adrenaline
# Procedure: The method of A. M. Rothschild and A. Castania (Arch. Pharmacol., 295, 177 (1976)), has been used to develop the acute edema in the lungs and substances of known therapeutic activity have been used for comparison purpose.
# For the test, male albino rats of Wistar type of average weight 250-350 grams, have been used for the test. The rats were stabilized for a period of ten days at a temperature of 21°±1° C., under conditions of controlled diet and water "ad libitum". Prior to the test, the animals were divided into groups of ten for the purpose of achieving good randomization. Each dose was tried on three groups of animals. The animals were anesthetized with pentobarbital in a dose of 30 mg/kg at the beginning of the test. After the animals were in complete narcosis, the following substances were administered by the parenteral route:
# 1. to the animals as controls, physiological saline solution in the amount of 1 ml/kg,
# 2. to the animals in the test, a solution of the substance being tested in physiological saline solution in the amount of 1 ml/kg in the doses reported hereinbelow in the table.
# After a period of 15 minutes, for the purpose of determining the protective activity of the substances, adrenaline was administered in the amount of 16 γ/kg by the endovenous route and in physiological saline solution, for the purpose of causing acute edema.
# After five minutes, the animals were killed by removal of the head, the lungs were removed and the weight of the lungs were determined. The results of the test are reported in Table 1 hereinbelow, together with the concentration of the substances and the relative inhibition of edema in percent.
# [4] = system: Fibrin Degradation Products; assay: Inhibition of hyperfibrinolysis caused by urokinase (F.D.P., staphylococcal clumping test); assay type: in vivo, Wistar rats; details: parenteral, 30 min before urokinase 2500 U.I/rat
# Procedure: The induction of hyperfibrinolysis state is caused by administration of urokinase. The determination of the inhibition is carried out by determination of the F.D.P. value, that is Fibrin Degradation Products, according to the procedure of J. Hawiger et al, J. Lab. Clin. Med. 75, 93 (1970), by means of the staphylococcal clumping test (Boehringer Mannheim GmbH test).
# There are used Wistar rats of 300 grams ±10 by weight previously stabilized for a period of ten days at a temperature of 21°±1° C., under conditions of controlled diet and water "ad libitum". Twenty-four hours prior to the beginning of the experiment, the animals are divided in groups of ten for the purpose of achieving randomization. Each individual dose is tried on three groups of animals.
# At the beginning of the test, zero time, the compounds being tested are administered through the parenteral route. In the case of the control animals, at the same time an equal volume of a physiological saline solution is administered except that some blood is removed by means of a cardiac puncture, for the purpose of determining the basal fibrinolytic activity. After 30 minutes, human urokinase (the composition marketed by Ukidan-Serono) is administered intravenously in the amount of 2500 U.I/rat. After an additional period of ten minutes, blood is removed by means of a cardiac puncture for the final determination of F.D.P., a determination which is expressed in […].
SMILES,% MORTALITY ([1]; dose 10 mg/kg) [%],% MORTALITY ([1]; dose 20 mg/kg) [%],% MORTALITY ([1]; dose 50 mg/kg) [%],% MORTALITY ([2]; dose 5 mg/kg) [%],% MORTALITY ([2]; dose 10 mg/kg) [%],% MORTALITY ([2]; dose 20 mg/kg) [%],% MORTALITY ([2]; dose 50 mg/kg) [%],% INHIBITION OF EDEMA ([3]; dose 1 mg/kg) [%],% INHIBITION OF EDEMA ([3]; dose 2.5 mg/kg) [%],% INHIBITION OF EDEMA ([3]; dose 5 mg/kg) [%],% INHIBITION OF EDEMA ([3]; dose 10 mg/kg) [%],% INHIBITION OF EDEMA ([3]; dose 20 mg/kg) [%],F.D.P. ([4]; dose 5 mg/kg) [milliliters],F.D.P. ([4]; dose 10 mg/kg) [milliliters],F.D.P. ([4]; dose 20 mg/kg) [milliliters],also measured
"COC(=O)[C@@H](N)CCCNC(=N)N [L-A.M., LArginine methyl ester hydrochloride]",40.5,27,12.5,55.0,50.0,40.0,28.0,21.2,27.4,29.0,55.7,15.7,0.48,0.30,0.25,–
CO [Methanol],–,–,–,–,–,–,–,–,–,–,–,–,–,–,–,% MORTALITY ([1]; dose 2 mg/kg): 76.6%; % MORTALITY ([1]; dose 4 mg/kg): 79.4%; % MORTALITY ([1]; dose 8 mg/kg): 81%; % MORTALITY ([2]; dose 2 mg/kg): 76%; % MORTALITY ([2]; dose 4 mg/kg): 72%; % MORTALITY ([2]; dose 8 mg/kg): 74%; % INHIBITION OF EDEMA ([3]; dose 0.08 mg/kg): 2.3%; % INHIBITION OF EDEMA ([3]; dose 0.8 mg/kg): 5%; % INHIBITION OF EDEMA ([3]; dose 2 mg/kg): 12%; % INHIBITION OF EDEMA ([3]; dose 4 mg/kg): 6%; % INHIBITION OF EDEMA ([3]; dose 8 mg/kg): 15%; % INHIBITION OF EDEMA ([3]; dose 16 mg/kg): 15%; F.D.P. ([4]; dose 2 mg/kg): 3.02 milliliters; F.D.P. ([4]; dose 4 mg/kg): 3.12 milliliters; F.D.P. ([4]; dose 8 mg/kg): 3.27 milliliters
"COC(=O)[C@H](N)CCCNC(=N)N [D-A.M., DArginine methyl ester hydrochloride]",78.8,81.0,76.3,71.2,68.5,69,73,16.8,11.7,15.4,4.4,6.4,3.10,3.03,3.16,–
"CCOC(=O)[C@H](N)CCCNC(=N)N [D-A.E., DArginine ethyl ester hydrochloride]",76.7,79.4,81.0,72,67,69.3,71,4.2,7,5.3,6,2.5,3.20,3.16,3.19,% INHIBITION OF EDEMA ([3]; dose 0.1 mg/kg): 7%; % INHIBITION OF EDEMA ([3]; dose 0.25 mg/kg): 11%; % INHIBITION OF EDEMA ([3]; dose 0.5 mg/kg): 3%
